For series [1] the following is noted: Crystal; DTA.
Series [2] can be described thus: Molar enthalpy of transition or fusion. To be noted: Crystal; DSC.

± gives the expanded uncertainty stated by the source.

Take `CC(=O)Oc1ccc(C2CC(=O)c3c(OC(C)=O)cc(OC(C)=O)cc3O2)cc1` (configuration not stated) [4',5,7-triacetoxyflavanone]: the Normal melting temperature in series [1] was determined as 73.80 ± 0.46 °C. The “Molar enthalpy of transition or fusion” value in series [2] was 4.97 ± 0.263 kcal/mol.

The record behind these values is the NIST ThermoML archive (doi:10.1021/acs.jced.6b00929).
